In publication PMC4501687, “Design of a Selective Substrate and Activity Based Probe for Human Neutrophil Serine Protease 4” (PLoS ONE, 2015):

Tests used:
[1] = target: T1, NSP4 (Homo sapiens, UniProt Q6UWY2); experiment: Inhibition rate constant (kobs/I), pseudo-first order, NSP4; format: biochemical
T1 construct: made in house
T1 sequence (Q6UWY2 32-283): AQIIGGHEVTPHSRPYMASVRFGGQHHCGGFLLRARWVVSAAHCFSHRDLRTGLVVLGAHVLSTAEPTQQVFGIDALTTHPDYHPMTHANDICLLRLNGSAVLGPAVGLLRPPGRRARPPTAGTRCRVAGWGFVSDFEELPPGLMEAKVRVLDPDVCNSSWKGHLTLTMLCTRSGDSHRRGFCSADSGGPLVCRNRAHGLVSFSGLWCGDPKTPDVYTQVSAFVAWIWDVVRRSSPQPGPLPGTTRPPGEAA
Procedure: (§1) The active concentration of each NSP was determined by PK401 titration in 50 mM Hepes, 0.1 M NaCl, 0.1%TRITON-X100, pH 7.45 assay buffer on 96 wells Corning plates. Rfu/s values were measured for minimum 20 minutes. The excitation wavelength was 355 nm, and the emission wavelength was 460 nm, with a cutoff of 455 nm. Under pseudo-first order conditions, a fixed amount of NSP4 (2.8 nM active enzyme), PR3, NE, or CatG (100 nM active enzyme) was mixed with PK401 at different concentration ranges starting from at least 2-fold excess over NSP4 (6.6–20nM) and 7-fold excess over NE, CatG and PR3 (0.7–50μM). […] Product formation (P) proceeded at an initial velocity (V) and was inhibited over time (t) at a rate of (k a): P = V/ka*(1-e^-ka^*t)+C, where k o is defined as k obs(app) −the apparent rate of inhibition in the presence of substrate. k obs was determined separately for each probe concentration using non-linear regression analysis in GraphPadPrism software. The obtained values were plotted against probe concentration giving k obs(app)/I (apparent second order rate constant). kobs/I (absolute value of the second order rate constant) was then calculated from kobs/I = ka/I *(1+[S]/Km). […]

[2] = target: T2, NE (Homo sapiens, UniProt P08246); experiment: SDS-PAGE / streptavidin blot labeling of NE by probe; format: binding; conditions: 100 nM active enzyme, 100 nM PK401; streptavidin blot (Fig 4B)
T2 construct: purchased Biocentrum, Krakow, Poland
T2 sequence (P08246 30-267): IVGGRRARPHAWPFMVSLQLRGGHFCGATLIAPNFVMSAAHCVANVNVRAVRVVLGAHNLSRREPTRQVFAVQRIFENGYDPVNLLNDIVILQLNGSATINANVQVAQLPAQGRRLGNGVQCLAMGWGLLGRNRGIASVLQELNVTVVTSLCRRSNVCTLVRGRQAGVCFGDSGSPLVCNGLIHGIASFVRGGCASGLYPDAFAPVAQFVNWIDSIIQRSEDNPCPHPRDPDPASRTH
Procedure: (§2) Samples were denatured and run in 4–12% SDS PAGE following transfer to nitrocellulose membrane. The membrane was blocked with 1.5% BSA in TBST overnight at 4°C and treated with IRDye800CW Streptavidin (dilution 1:10000 with 1.5% BSA in TBST) for 45 minutes. Then enzyme was visualized using a Li-cor fluorescence imager and Odyssey Molecular Modeling Software.
(§3) The same methodology was used to visualize potential cross-reactivity of NSP’s with PK401. 100nM of each NSP was incubated with buffer or 100nM PK401, followed by SDS-page and transfer to nitrocellulose membrane. For more details see S1 Text.
(§4) SDS-page and Western Blot […]
(§5) A standard SDS broad spectrum marker (Biorad) was used (Fig. 4A, lane 1).
(§6) Two Eppendorf tubes with 100nM of NSP4 were incubated with Ac-IVPR-CMK for 30 minutes at 37°C and then treated with PK401 at 2000nM and 1000nM for an additional 20 minutes at 37° C (Fig. 4, lanes 2 and 3). Separately, 100nM enzyme […]
(§7) minutes in 37° C (Fig. 4, lanes 4, 5, 6, 7, 8). […] Then enzyme was visualized using a Li-cor fluorescence imager and Odyssey Molecular Modeling Software. […]
(§8) The membrane was blocked with 1.5% BSA in TBST overnight at 4° C and treated with IRDye800CW Streptavidin (dilution 1:10000 with 1,5% BSA in TBST) for 45 minutes. Then PK401 was visualized using a Li-cor fluorescence imager and Odyssey Molecular Modeling Software.

[3] = target: T1, NSP4; experiment: SDS-PAGE / streptavidin blot labeling of purified NSP4 by probe; format: binding; conditions: 100 nM NSP4, 20 min 37°C; SDS-PAGE, nitrocellulose transfer, fluorescent streptavidin; probe tested 1–2000 nM
Procedure: 100nM of NSP4 was incubated with competing inhibitor—Ac-IVPR-CMK for 30 minutes at 37°C and then treated with different concentrations of probe—PK401 (2000nM and 1000nM) for 20 minutes at 37°C. Separately, 100nM of NSP4 was incubated with five different concentrations of probe- 2000nM, 1000nM, 100nM, 10nM, and 1 nM for 20 minutes in 37°C. As a control 100nM PK401 was incubated with assay buffer.
as §2, §4
A standard SDS broad spectrum marker (Biorad) was used (Fig. 4A, lane 1). […]
as §7, §8

[4] = target: T3, CatG (Homo sapiens, UniProt P08311); experiment: Inhibition rate constant (kobs/I), pseudo-first order, CatG; format: biochemical; conditions: selectivity NSP4 over CatG
T3 construct: purchased Biocentrum, Krakow, Poland
T3 sequence (P08311 21-255): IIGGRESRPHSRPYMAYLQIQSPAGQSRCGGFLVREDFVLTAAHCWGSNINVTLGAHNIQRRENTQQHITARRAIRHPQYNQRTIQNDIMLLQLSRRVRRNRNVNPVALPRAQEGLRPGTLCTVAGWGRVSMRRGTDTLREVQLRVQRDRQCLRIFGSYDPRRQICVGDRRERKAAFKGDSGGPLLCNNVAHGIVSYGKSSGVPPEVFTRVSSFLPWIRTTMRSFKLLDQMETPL
Procedure: as §1

[5] = target: T3, CatG; experiment: SDS-PAGE / streptavidin blot labeling of CatG by probe; format: binding; conditions: 100 nM active enzyme, 100 nM PK401; streptavidin blot (Fig 4B)
Procedure: as §2, §3, §4, §5, §6, §7, §8

[6] = target: T3, CatG; experiment: Fluorogenic substrate hydrolysis kinetics with CatG; format: biochemical; conditions: Table 3; assay substrate for CatG; Km above 100 μM, the concentration used in the assay; read-out: Km of the substrate used for analysis
Procedure: Kinetic parameters of selected substrates were determined in 50 mM Hepes, 0.1 M NaCl, 0.1%TRITON-X100, pH 7.45 assay buffer on 96 wells Corning plates. Measurements were performed for a minimum of 20 minutes. The excitation wavelength was 355 nm, and the emission wavelength was 460 nm, with a cutoff of 455 nm. Human NE and CatG were purchased from Biocentrum, Krakow, Poland and PR3 from Athens Research Technology, Athens, Georgia, USA. Recombinant human NSP4 was expressed and purified as previously described.
In addition to NSP4, neutrophils contain three other structurally-related serine proteases NE, PR3 and CatG [1] that are also stored in azurophilic granules. To estimate the degree of eventual cross reactivity of the optimal substrate with these three serine proteases, we measured kinetic parameters for each enzyme on PK421. […] In the case of CatG we were unable to saturate the enzyme and therefore could not calculate the individual values of kcat and Km.

Km [6] [µM]	Substance	kobs/I (second order rate constant of inhibition) ([1]; NSP4 2.8 nM active enzyme, probe 6.6–20 nM, substrate Ac-hCha-Phe(guan)-Pro-Arg-ACC above Km, 37°C, Hepes buffer pH 7.45, corrected by 1+[S]/Km) [M⁻¹ s⁻¹]	Fold higher kobs/I than PK401b ([1]; NSP4, diastereoisomers compared) [times]	Labeling of NE by probe [2]	Probe concentration giving robust labeling of NSP4 [3] [nM]	Inhibition of CatG relative to NSP4 (kobs/I) [4]	Labeling of CatG by probe [5]
–	Biot-Ahx-hCha-Phe(guan)-Oic-Arg^P(OPh)2 [PK401]	3.8e+06	40	only trace amounts of labeling	10	three orders of magnitude slower	only trace amounts of labeling
> 100	Suc-Ala-Ala-Pro-Phe-AMC [assay substrate for CatG]	–	–	–	–	–	–
